Laboratory results reported in patent publication US8134015B2, “Compound inhibiting in vivo phosphorous transport and medicine containing the same” (Kyowa Hakko Kirin Co., Ltd., priority 2003, dated 2012).

The compounds below were run against T1, rat NaPi-2b (Rattus norvegicus, UniProt Q9JJ09) (assay: Sodium-dependent phosphate uptake of Xenopus oocytes which expressed NaPi-2b (32P)). Conditions: Xenopus oocytes expressing rat NaPi-2b, 32P radioactive phosphorus; read-out: IC50 (phosphate uptake inhibitory activity).
T1 construct: expressed in transfected cells; host or cells: Xenopus oocytes injected with cRNA
T1 sequence (Q9JJ09 1-695): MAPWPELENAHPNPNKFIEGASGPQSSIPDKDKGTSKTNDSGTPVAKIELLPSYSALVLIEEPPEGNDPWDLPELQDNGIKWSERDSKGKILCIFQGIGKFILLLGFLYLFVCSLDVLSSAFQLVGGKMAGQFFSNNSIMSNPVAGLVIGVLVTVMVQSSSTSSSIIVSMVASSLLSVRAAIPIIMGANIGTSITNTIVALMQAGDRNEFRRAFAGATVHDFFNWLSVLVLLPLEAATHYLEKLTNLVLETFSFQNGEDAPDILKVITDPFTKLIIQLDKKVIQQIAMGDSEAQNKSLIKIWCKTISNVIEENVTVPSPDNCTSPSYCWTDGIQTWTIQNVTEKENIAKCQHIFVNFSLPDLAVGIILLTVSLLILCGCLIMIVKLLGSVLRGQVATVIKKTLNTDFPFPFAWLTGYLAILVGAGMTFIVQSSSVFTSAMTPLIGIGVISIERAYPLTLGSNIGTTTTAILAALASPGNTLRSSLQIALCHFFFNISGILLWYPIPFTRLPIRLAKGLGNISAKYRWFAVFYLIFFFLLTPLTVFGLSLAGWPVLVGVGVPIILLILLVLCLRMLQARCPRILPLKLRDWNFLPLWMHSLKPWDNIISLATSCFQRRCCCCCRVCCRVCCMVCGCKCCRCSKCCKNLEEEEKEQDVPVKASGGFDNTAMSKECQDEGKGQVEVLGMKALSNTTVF
Assay type: cell-based
Method in brief: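 Read-out is 32P phosphate uptake into Xenopus oocytes expressing rat intestinal NaPi-2b (cRNA injection, 2-day culture). Inhibition at 300 μM and 100 μM was derived from a single inhibition curve and given as percent.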
An IC50 of 30.2 µM was found for CC(O)CN(Cc1cccc(C(=O)Nc2ccc(N3CCCC3=O)cc2C(=O)N/N=C/c2ccc(F)cc2)c1)CC(C)O (stereo not shown) [Compound 947, 3-{[Bis-(2-hydroxy-propyl)-amino]-methyl}-N-[2-(4-fluoro-benzylidene-hydrazinocarbonyl)-4-(2-oxo-pyrrolidin-1-yl)-phenyl]-benzamide] in this work.
An IC50 of 11.6 µM was found for Cc1ccc(/C=N/NC(=O)c2cc(N3CCCC3=O)ccc2NC(=O)c2cccc(CN(CC(C)O)CC(C)O)c2)cc1 (stereo not shown) [Compound 948, 3-{[Bis-(2-hydroxy-propyl)-amino]-methyl}-N-[2-(4-methyl-benzylidene-hydrazinocarbonyl)-4-(2-oxo-pyrrolidin-1-yl)-phenyl]-benzamide] in this work.
An IC50 of 9.08 µM was found for CC(O)CN(Cc1cccc(C(=O)Nc2ccc(OCC(O)CN3CCCCC3)cc2C(=O)N/N=C/c2ccc(Cl)c(C(F)(F)F)c2)c1)CC(C)O (stereo not shown) [Compound 950, 3-{[Bis-(2-hydroxy-propyl)-amino]-methyl}-N-[2-(4-chloro-3-trifluoromethyl-benzylidene-hydrazinocarbonyl)-4-(2-hydroxy-3-piperidin-1-yl-propoxy)-phenyl]-benzamide] in this work.
An IC50 of 19.2 µM was found for CCN(CC)CC(O)COc1ccc(NC(=O)c2cccc(CN(CC(C)O)CC(C)O)c2)c(C(=O)N/N=C/c2ccc(Cl)c(C(F)(F)F)c2)c1 (stereo not shown) [Compound 952, 3-{[Bis-(2-hydroxy-propyl)-amino]-methyl}-N-[2-(4-chloro-3-trifluoromethyl-benzylidene-hydrazinocarbonyl)-4-(3-diethylamino-2-hydroxy-propoxy)-phenyl]-benzamide] in this work.
An IC50 of 60.5 µM was found for CC(O)CN(Cc1cccc(C(=O)Nc2ccc(OCC(O)CN3CCOCC3)cc2C(=O)N/N=C/c2ccc(Cl)c(C(F)(F)F)c2)c1)CC(C)O (stereo not shown) [Compound 954, 3-{[Bis-(2-hydroxy-propyl)-amino]-methyl}-N-[2-(4-chloro-3-trifluoromethyl-benzylidene-hydrazinocarbonyl)-4-(2-hydroxy-3-morpholin-4-yl-propoxy)-phenyl]-benzamide] in this work.
An IC50 of 29.8 µM was found for CCN(CC)Cc1cccc(C(=O)Nc2sc(CN3CCCCC3)c(C)c2C(=O)N/N=C/c2ccc(Cl)c(C(F)(F)F)c2)c1 [Compound 956, N-[3-(4-Chloro-3-trifluoromethyl-benzylidene-hydrazinocarbonyl)-4-methyl-5-piperidin-1-ylmethyl-thiophen-2-yl]-3-diethylaminomethyl-benzamide] in this work.
For COc1ccc(/C=N/NC(=O)c2cc(N3CCCCC3)ccc2NC(=O)c2cccc(CN(CC(C)O)CC(C)O)c2)cc1 (stereo not shown) [Compound 958, 3-{[Bis-(2-hydroxy-propyl)-amino]-methyl}-N-[2-(4-methoxy-benzylidene-hydrazinocarbonyl)-4-piperidin-1-yl-phenyl]-benzamide], the IC50 was < 1 µM.
CC(O)CN(Cc1cccc(C(=O)Nc2cc3ccccc3cc2C(=O)N/N=C/c2cccc(F)c2)c1)CC(C)O (stereo not shown) [Compound 959, 3-{[Bis-(2-hydroxy-propyl)-amino]-methyl}-N-[3-(3-fluoro-benzylidene-hydrazinocarbonyl)-naphthalen-2-yl]-benzamide] was tested, and the IC50 was < 1 µM.
An IC50 of 1.12 µM was found for Cc1ccc(/C=N/NC(=O)c2cc3ccccc3cc2NC(=O)c2cccc(CN(CC(C)O)CC(C)O)c2)cc1 (stereo not shown) [Compound 960, 3-{[Bis-(2-hydroxy-propyl)-amino]-methyl}-N-[3-(4-methyl-benzylidene-hydrazinocarbonyl)-naphthalen-2-yl]-benzamide] in this work.
In the case of Cc1ccc(/C=N/NC(=O)c2cc3ccccc3cc2NC(=O)c2cccc(CN(CC(C)O)CC(C)O)c2)cc1C (stereo not shown) [Compound 961, 3-{[Bis-(2-hydroxy-propyl)-amino]-methyl}-N-[3-(3,4-dimethyl-benzylidene-hydrazinocarbonyl)-naphthalen-2-yl]-benzamide], the IC50 is reported as < 1 µM.
In the case of CC(O)CN(Cc1cccc(C(=O)Nc2cc3ccccc3cc2C(=O)N/N=C/c2ccc(Cl)c(C(F)(F)F)c2)c1)CC(C)O (stereo not shown) [Compound 962, 3-{[Bis-(2-hydroxy-propyl)-amino]-methyl}-N-[3-(4-chloro-3-trifluoromethyl-benzylidene-hydrazinocarbonyl)-naphthalen-2-yl]-benzamide], the IC50 is reported as < 1 µM.
COc1ccc(/C=N/NC(=O)c2cc3ccccc3cc2NC(=O)c2cccc(CN(CC(C)O)CC(C)O)c2)cc1 (stereo not shown) [Compound 963, 3-{[Bis-(2-hydroxy-propyl)-amino]-methyl}-N-[3-(4-methoxy-benzylidene-hydrazinocarbonyl)-naphthalen-2-yl]-benzamide] was tested, and the IC50 was < 1 µM.
An IC50 of 27.2 µM was found for Cc1ccc(/C=N/NC(=O)c2cccnc2NC(=O)c2cccc(CN(CC(C)O)CC(C)O)c2)cc1 (stereo not shown) [Compound 965, 3-{[Bis-(2-hydroxy-propyl)-amino]-methyl}-N-[3-(4-methyl-benzylidene-hydrazinocarbonyl)-pyridin-2-yl]-benzamide] in this work.
An IC50 of 16 µM was found for Cc1ccc(/C=N/NC(=O)c2cccnc2NC(=O)c2cccc(CN(CC(C)O)CC(C)O)c2)cc1C (stereo not shown) [Compound 966, 3-{[Bis-(2-hydroxy-propyl)-amino]-methyl}-N-[3-(3,4-dimethyl-benzylidene-hydrazinocarbonyl)-pyridin-2-yl]-benzamide] in this work.
An IC50 of 6.57 µM was found for CC(O)CN(Cc1cccc(C(=O)Nc2ncccc2C(=O)N/N=C/c2ccc(Cl)c(C(F)(F)F)c2)c1)CC(C)O (stereo not shown) [Compound 967, 3-{[Bis-(2-hydroxy-propyl)-amino]-methyl}-N-[3-(4-chloro-3-trifluoromethyl-benzylidene-hydrazinocarbonyl)-pyridin-2-yl]-benzamide] in this work.
With O=C(Nc1cc2ccccc2cc1C(=O)N/N=C/c1cccc(F)c1)c1cccc(CN2CCN(CCO)CC2)c1 [Compound 969, N-[3-(3-Fluoro-benzylidene-hydrazinocarbonyl)-naphthalen-2-yl]-3-[4-(2-hydroxy-ethyl)-piperazin-1-ylmethyl]-benzamide] the IC50 was < 3 µM.
With Cc1ccc(/C=N/NC(=O)c2cc3ccccc3cc2NC(=O)c2cccc(CN3CCN(CCO)CC3)c2)cc1 [Compound 970, 3-[4-(2-Hydroxy-ethyl)-piperazin-1-ylmethyl]-N-[3-(4-methyl-benzylidene-hydrazinocarbonyl)-naphthalen-2-yl]-benzamide] the IC50 was < 3 µM.

Same assay, conditions: phosphate uptake, oocytes expressing rat NaPi-2b; 300 μM, determined from inhibition curve
An inhibition at 300 µM of 45% was found for COc1ccc(/C=N/NC(=O)c2cc(N3CCCC3=O)ccc2NC(=O)c2cccc(CN(CC(C)O)CC(C)O)c2)cc1 (stereo not shown) [Compound 946, 3-{[Bis-(2-hydroxy-propyl)-amino]-methyl}-N-[2-(4-methoxy-benzylidene-hydrazinocarbonyl)-4-(2-oxo-pyrrolidin-1-yl)-phenyl]-benzamide] in this work.
An inhibition at 300 µM of 72.6% was found for Cc1ccc(/C=N/NC(=O)c2cc(OCC(O)CN3CCCCC3)ccc2NC(=O)c2cccc(CN(CC(C)O)CC(C)O)c2)cc1C (stereo not shown) [Compound 949, 3-{[Bis-(2-hydroxy-propyl)-amino]-methyl}-N-[2-(3,4-dimethyl-benzylidene-hydrazinocarbonyl)-4-(2-hydroxy-3-piperidin-1-yl-propoxy)-phenyl]-benzamide] in this work.
An inhibition at 300 µM of 68.5% was found for CCN(CC)CC(O)COc1ccc(NC(=O)c2cccc(CN(CC(C)O)CC(C)O)c2)c(C(=O)N/N=C/c2ccc(C)c(C)c2)c1 (stereo not shown) [Compound 951, 3-{[Bis-(2-hydroxy-propyl)-amino]-methyl}-N-[4-(3-diethylamino-2-hydroxy-propoxy)-2-(3,4-dimethyl-benzylidene-hydrazinocarbonyl)-phenyl]-benzamide] in this work.
An inhibition at 300 µM of 67.8% was found for Cc1ccc(/C=N/NC(=O)c2cc(OCC(O)CN3CCOCC3)ccc2NC(=O)c2cccc(CN(CC(C)O)CC(C)O)c2)cc1C (stereo not shown) [Compound 953, 3-{[Bis-(2-hydroxy-propyl)-amino]-methyl}-N-[2-(3,4-dimethyl-benzylidene-hydrazinocarbonyl)-4-(2-hydroxy-3-morpholin-4-yl-propoxy)-phenyl]-benzamide] in this work.
An inhibition at 300 µM of 57.7% was found for COc1ccc(C(=O)Nc2sc(C)cc2C(=O)N/N=C/c2ccc(Cl)c(C(F)(F)F)c2)cc1OC [Compound 955, N-[3-(4-Chloro-3-trifluoromethyl-benzylidene-hydrazinocarbonyl)-5-methyl-thiophen-2-yl]-3,4-dimethoxy-benzamide] in this work.
An inhibition at 300 µM of 54.9% was found for CCN(CC)Cc1cccc(C(=O)Nc2sc(CN3CCCCC3)c(C)c2C(=O)N/N=C/c2ccc(OC)cc2)c1 [Compound 957, 3-Diethylaminomethyl-N-[3-(4-methoxy-benzylidene-hydrazinocarbonyl)-4-methyl-5-piperidin-1-ylmethyl-thiophen-2-yl]-benzamide] in this work.
An inhibition at 300 µM of 67.5% was found for CC(O)CN(Cc1cccc(C(=O)Nc2ncccc2C(=O)N/N=C/c2cccc(F)c2)c1)CC(C)O (stereo not shown) [Compound 964, 3-{[Bis-(2-hydroxy-propyl)-amino]-methyl}-N-[3-(3-fluoro-benzylidene-hydrazinocarbonyl)-pyridin-2-yl]-benzamide] in this work.
An inhibition at 300 µM of 52.7% was found for COc1ccc(/C=N/NC(=O)c2cccnc2NC(=O)c2cccc(CN(CC(C)O)CC(C)O)c2)cc1 (stereo not shown) [Compound 968, 3-{[Bis-(2-hydroxy-propyl)-amino]-methyl}-N-[3-(4-methoxy-benzylidene-hydrazinocarbonyl)-pyridin-2-yl]-benzamide] in this work.
